Test results published in patent US20260286302A1, “METHODS FOR PRODUCING A SUPER CENTRAL MEMORY CD8 T CELL SUBTYPE BY POLY(ADP-RIBOSE) POLYMERASE (PARP) INHIBITION AND USES THEREOF” (Georgetown University, priority 2023, published 2026).

Tests used:
SIRT-1/FOXO1 = SIRT-1/FOXO1 signaling, Western blot and immunofluorescence; format: cell-based, mouse
Description: pMel-1 CD8 T cells were activated with gp100 in the presence or absence of PARPi for 48 h containing glass coverslips. Cells were then washed with PBS (Mg^+ca^+), fixed for 5 min with 4% PFA and permeabilized in PBS/triton 1×. […] Finally, DAPI staining was applied. Images were acquired with a Leica TCS-SP5II upright confocal microscope (Leica Microsystems).

NAD = NAD accumulation assay; format: cell-based, mouse; conditions: activated pMel-1 CD8 T cells, 48 h
Description: pMel-1 CD8 T cells were activated with gp100 in the presence or absence of PARPi for 48 h. Cells were washed with cold PBS and pelleted in a microcentrifuge tube by centrifuging at 2,000 rpm for 5 minutes. Cells were lysed with 400 μL of NADH/NAD extraction buffer and then centrifuged at 13,000 g for 10 minutes to remove insoluble material. The supernatants were collected and the levels of NAD in the cell lysates were estimated using the NAD/NADH Quantitation Kit according to the manufacturing kit (Millipore NAD/NADH Quantification Kit Sigma #MAK037).

TC-1 = assay: Tumor growth in immune deficient nude mice (TC-1); format: in vivo, mouse; conditions: TC-1 in immune deficient nude mice
Description: The effect of PARPi on direct CD8 T cell-driven anti-tumor immune response remains poorly understood. Therefore, to dissect this effect, the anti-tumor immune effect of PARPi was tested in vivo in tumor models that require T cell priming, which helps delineate the direct effect of the drug on CD8 T cells. […] While 18% and 10% of mice survived in the vaccine-treated and PARPi-treated groups, respectively, in the TC-1 tumor model at day 22, 90% survived when PARPi was added to the vaccine. Similarly, in the B16F10 tumor model, 10% of the mice treated with vaccine alone were alive at day 22, compared to 40% when PARPi was added.

pMel-1 CD8 T cells [1] = assay: RT-PCR gene expression in TCM^sup versus TCM; format: cell-based, mouse; conditions: TCM^sup vs gp100-induced TCM
Description: Total RNA was extracted from gp100 or gp100 plus PARPi-activated CD8 T cells using the RNeasy Mini Kit (Qiagen, catalog no. 74004) following the manufacturer's instructions. The extraction included a digestion step with DNase I to prevent subsequent amplification of genomic DNA. One μg total RNA was subjected to single-strand complementary DNA synthesis using High-Capacity cDNA Reverse Transcription Kit (Thermo Fisher, catalog no. 4368814). The Taqman® gene expression assay from Applied Biosystems was used for qrtPCR, and primer pairs (catalog no. 4331182) from Applied Biosystems were used to detect gene expression of Eomes (#Mm01351984-m1), Acot1 (#Mm0162271-S1), Cpt1a (#Mm0123183-m1), Klf2 (#Mm00500486-g1), CD62L (#Mm00441291-m1),CCR7 (#Mm99999130-s1), and Cdkn1b (#Mm00438168-m1). Data were procured using StepOnePlus Real-Time PCR System from Applied Biosystems and normalized to the geometric mean of the housekeeping gene beta-actin (β-actin) (#Mm02619580-g1).

pMel-1 CD8 T cells [2] = assay: RNA-sequencing of gp100-activated pMel-1 CD8 T cells; format: cell-based, mouse
Description: Ribo-Zero Plus Kit from Illumina® was used for stranded Total RNA Prep Ligation. This protocol involves the removal of ribosomal RNA (rRNA) using biotinylated, target-specific oligos combined with Ribo-Zero rRNA removal beads. RNA was fragmented into small pieces and the cleaved RNA fragments were copied into first strand cDNA using reverse transcriptase and random primers, followed by second strand cDNA synthesis using DNA Polymerase I and RNase H. The resulting double-strand cDNA were used as the input to a standard Illumina library prep with end-repair, adapter ligation and PCR amplification being performed to give a sequencing ready library. The final purified product was then quantitated by qPCR before cluster generation and sequencing on NovaSeq 6000 instrument.

[3] = tested on: CD8+ T cells in TME of B16F10 tumors; assay: Immune profiling of the TME, B16F10 tumor-bearing mice; format: in vivo, mouse
Description: (§1) Two-to-three days after the second vaccination, mice in the various groups were euthanized and tumors were collected.
(§2) A total of 0.1-0.2×10^6 cells per sample were stained for Live/Dead staining followed by fixation and permeabilization. For IFNγ and granzyme B (Gzm B) staining, BD Cytofix/Cytoperm (catalog no. 51-2090KZ) and BD Perm/Wash (catalog no. 51-2091KZ) buffer set were used according to the manufacturer's instructions (BD Pharmingen). CD8^+ T cells from tumor samples were stained similarly. Data acquisition was performed on a BD LSR II flow cytometer using the software FACS Diva v.9.0. Results were analyzed using FlowJo software (TreeStar). MitoFM, a green-fluorescent mitochondrial stain, which localizes to mitochondria, was used as described previously (Sukumar et al., Cell Metab 23 (1): 63-76, 2016).

[4] = tested on: CD8+ T cells in TME of TC-1 tumors; assay: Immune profiling of the TME, TC-1 tumor-bearing mice; format: in vivo, mouse
Description: as §1, §2

human CD8 T cells = assay: In vitro-activated human CD8+ T cells, memory characteristics; format: cell-based; conditions: anti-CD3/CD28 coupled beads for 72 h
Description: For evaluation of memory characteristics in human CD8+ T cells, naive CD8+ T cells were activated in the presence or absence of PARPi, by Dynabeads™ Human T-Activator CD3/CD28 (Thermo Fisher #11131), […]. Post-activation cells were gated upon CD8^+ T cell population and various characteristics were investigated as described in the Examples below.
as §2
To this end, human naïve CD8 T cells were activated with anti-CD3/CD28 coupled beads for 72 h.

## O=C(c1cc(Cc2n[nH]c(=O)c3ccccc23)ccc1F)N1CCN(C(=O)C2CC2)CC1 [olaparib]
SIRT-1/FOXO1; PARPi-treated CD8 T cells
  FOXO1 acetylation: decrease
SIRT-1/FOXO1; activated pMel-1 CD8 T cells
  SIRT-1 expression and activity: increased
SIRT-1/FOXO1; immunofluorescence and Western blot, compared to gp100-activated cells
  FOXO1 in the nucleus: increase in accumulation and expression
SIRT-1/FOXO1; total lysate
  FOXO1 phosphorylation: significant reduction
NAD
  accumulation of NAD: significantly enhanced
TC-1
  tumor growth: did not affect tumor growth
pMel-1 CD8 T cells [1]
  FOXO1-regulated memory genes (Cd62l, Klf2, Tcf7, Ccr7): upregulated
  expression of Acot1 and Cpt1α: significantly higher
pMel-1 CD8 T cells [2]; PARPi-treated vs gp100, 48 h
  genes related to OXPHOS and FAO (Acot1, Cpt1α): significantly upregulated
  genes related to the glycolysis pathway (Eno1, Aldoc, Pgk1, Gapdh): significantly downregulated
pMel-1 CD8 T cells [2]; after PARPi treatment, 48 h
  expression of genes related to memory (Sell, Bcl2, Ccr7, Slpr1, Cd44, Tcf7, Klf2, Eomes): significant increase
[3]; B16, vaccinated in the presence of PARPi vs either treatment alone
  number of total and antigen-specific CD8+ T cells in TME: significant increase
[3]; B16F10, PARPi given with the vaccine
  IFNγ+ and granzyme B+ total and antigen-specific CD8+ T cells: enhanced functionality
[3]; B16F10, PARPi with vaccine
  vaccine-induced central memory CD8 T cells in the TME: increased
[3]; B16F10 TME
  proliferation of CD8 T cells as determined by Ki67 expression: significant decrease
[4]; TC1, vaccinated in the presence of PARPi vs either treatment alone
  number of total and antigen-specific CD8+ T cells in TME: significant increase
[4]; TC-1, PARPi given with the vaccine
  IFNγ+ and granzyme B+ total and antigen-specific CD8+ T cells: enhanced functionality
[4]; TC-1, PARPi in combination with vaccine
  CD44hiCD62Lhi CD8 T cells within the TCM compartment in the TME: appearance of a distinct population
[4]; TC-1, PARPi with vaccine
  vaccine-induced total and antigen-specific effector (TEM) and central memory (TCM) CD8 T cells in the TME: increased
[4]; TC-1 TME
  proliferation of CD8 T cells as determined by Ki67 expression: significant decrease
Human CD8 T cells
  IFNγ expression: significant increase
  number of CD45ROhiCCR7hi cells: significant increase
  number of CD45ROhiCD62Lhi cells: significant increase
